Laboratory results as given in PMC9721424, “Novel N-methylsulfonyl-indole derivatives: biological activity and COX-2/5-LOX inhibitory effect with improved gastro protective profile and reduced cardio vascular risks” (Journal of Enzyme Inhibition and Medicinal Chemistry, 2022).
Like-named read-outs stand apart in the source and are kept apart here.

Columns and labels:
[1] = tested on: Escherichia coli (E. coli) (ATCC 25922); assay: Disc diffusion antimicrobial screening, E. coli; assay type: cell-based; details: 100 µg/disc
Experimental: (§1) All compounds were screened for their antimicrobial activity at the Microbiology and Immunology Department, Faculty of Pharmacy, Beni-Suef University. The antimicrobial activity screening was carried out using the disc diffusion method, as described earlier, with some adjustments.
(§2) For each indicator microbe, a solution of half McFarland turbidity was prepared in sterile saline, followed by surface streaking of the strains on Mueller-Hinton agar with a sterile cotton swab. Then, sterile filter paper discs (5 mm diameter) preloaded with 100 µg of each compound were applied to the surface of the pre-inoculated plates. Then, the plates were chilled at 4 °C for 100 min before being incubated overnight at the proper temperature for microbial growth. Finally, the diameter of the inhibition zones around each disc was measured to evaluate the antimicrobial activity of the compounds. Ciprofloxacin was used as a standard antibacterial agent at a concentration of 20 µg/disc. Furthermore, DMSO-loaded discs were used as a negative control.

[2] = tested on: Salmonella enterica (ATCC 14028); assay: Disc diffusion antimicrobial screening, Salmonella enterica; assay type: cell-based; details: 100 µg/disc
Experimental: as §1, §2

DPPH free radical assay = assay type: biochemical; details: 540 nm, relative to Trolox; for DPPH test results (µM trolox equivalent/ 1mg sample ± SD): 30 min; for DPPH anti-oxidant activity: values in text
Experimental: (§3) Preparation of samples was occurred at the following concentrations: Samples 3a, 4a, 5b, 5d and 5e at final concentrations of 0.5 mg/ml in methanol: DMSO 9:1 v/v. Samples 4b and 4d at final concentrations 0.025 mg/ml in methanol: DMSO 9:1 v/v, sample 5a at final concentrations 0.25 mg/ml in methanol: DMSO 9:1 v/v, Sample 4c, 5c and 4e at final concentrations 0.05 mg/ml in methanol: DMSO 9:1 v/v, sample 3b at final concentration 0.75 mg/ml methanol: DMSO 9:1 v/v. A stock solution of 100 µM concentration of Trolox, a standard used in this experiment, was prepared in methanol from which seven concentrations were prepared, including 50, 40, 30, 20, 15, 10 and 5 µM.
The DPPH (2,2-diphenyl-1-picryl-hydrazyl-hydrate) free radical assay was carried out according to the method of Boly et al. 2016[39]. Briefly, freshly prepared DPPH reagent (100 µl, 0.1% in methanol) was added to 100 µl of the sample on 96 well plates (n = 6). The reaction was incubated at room temp for 30 min in the dark. After completion of the incubation time, the reduction in DPPH colour intensity was measured at 540 nm. Data obtained was represented as means ± SD, according to the following equation, percentage inhibition = [(Average absorbance of blank – average absorbance of the test)/(Average absorbance of blank)] *100. The results were recorded using a microplate reader, FluoStar Omega.
Microsoft Excel® was used to analyse the obtained results. The IC50 values were calculated using Graph pad Prism 6® by converting the concentrations to their logarithmic value and selecting the non-linear inhibitor regression equation (log (inhibitor) vs. normalised response – variable slope equation). The methods used and the final test report (R-SO7320) were obtained from Nawah Scientific.

COX-2 = biological target: T1, COX-2 (Ovis aries, UniProt P79208); assay: COX-2 inhibition, enzyme immune assay (EIA) kit; assay type: biochemical, ovine; details: for SI: lab report, COX1/COX2; for S.I (IC50 COX-1/IC50 COX-2): COX-2 selectivity index
T1 sequence (P79208 17-603): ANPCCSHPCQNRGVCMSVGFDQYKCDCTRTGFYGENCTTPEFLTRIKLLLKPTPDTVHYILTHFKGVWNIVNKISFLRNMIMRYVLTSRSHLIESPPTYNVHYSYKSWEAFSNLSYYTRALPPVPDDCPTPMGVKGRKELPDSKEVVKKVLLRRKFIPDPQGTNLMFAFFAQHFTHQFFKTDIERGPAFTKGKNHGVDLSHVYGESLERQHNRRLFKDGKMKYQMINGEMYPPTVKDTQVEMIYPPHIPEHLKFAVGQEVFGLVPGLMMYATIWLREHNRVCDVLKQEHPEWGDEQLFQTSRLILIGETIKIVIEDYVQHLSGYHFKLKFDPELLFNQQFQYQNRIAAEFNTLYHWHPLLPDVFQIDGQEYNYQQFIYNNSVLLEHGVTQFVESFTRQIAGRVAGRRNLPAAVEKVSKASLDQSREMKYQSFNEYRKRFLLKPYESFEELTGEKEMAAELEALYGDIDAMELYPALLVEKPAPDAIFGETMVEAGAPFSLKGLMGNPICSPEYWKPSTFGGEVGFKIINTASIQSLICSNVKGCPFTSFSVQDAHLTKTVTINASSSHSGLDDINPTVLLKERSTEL

5-LOX enzyme = biological target: T2, 5-LOX enzyme (Homo sapiens, UniProt P09917); assay: 5-LOX inhibition, Human Lipoxygenase Inhibitor Screening Assay (EIA) kit; assay type: biochemical
T2 construct: purchased Cayman Chemical K980-100
T2 sequence (P09917 1-674): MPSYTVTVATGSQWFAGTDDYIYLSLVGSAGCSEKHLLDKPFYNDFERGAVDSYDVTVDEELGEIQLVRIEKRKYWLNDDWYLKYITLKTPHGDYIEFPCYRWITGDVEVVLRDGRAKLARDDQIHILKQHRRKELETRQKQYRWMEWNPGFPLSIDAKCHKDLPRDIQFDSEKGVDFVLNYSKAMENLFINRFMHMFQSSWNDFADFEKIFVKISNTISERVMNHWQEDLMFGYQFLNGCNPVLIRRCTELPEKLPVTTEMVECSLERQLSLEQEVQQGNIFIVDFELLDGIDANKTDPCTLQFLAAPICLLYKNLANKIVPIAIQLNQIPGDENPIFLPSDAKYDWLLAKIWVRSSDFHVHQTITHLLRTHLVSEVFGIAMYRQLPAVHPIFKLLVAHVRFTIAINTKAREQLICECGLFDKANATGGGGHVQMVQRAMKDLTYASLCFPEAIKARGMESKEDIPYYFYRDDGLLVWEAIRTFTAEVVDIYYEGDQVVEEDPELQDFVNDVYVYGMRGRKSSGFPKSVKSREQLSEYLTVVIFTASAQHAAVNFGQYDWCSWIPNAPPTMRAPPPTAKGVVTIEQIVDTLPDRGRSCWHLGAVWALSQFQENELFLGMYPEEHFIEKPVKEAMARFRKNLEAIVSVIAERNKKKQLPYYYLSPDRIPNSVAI
Experimental: The ability of the test compounds to inhibit the 5-LOX enzyme (IC50 value, μM) was detected using the Cayman Human Lipoxygenase Inhibitor Screening Assay (EIA) kit (catalog no. K980-100, Cayman Chemical). The IC50 values of test compounds were measured in µM according to the manufacturer’s instructions and reported method.

ovine COX-1 = biological target: T3, ovine COX-1 (Ovis aries, UniProt P05979); assay: COX-1 inhibition, enzyme immune assay (EIA) kit
T3 sequence (P05979 25-600): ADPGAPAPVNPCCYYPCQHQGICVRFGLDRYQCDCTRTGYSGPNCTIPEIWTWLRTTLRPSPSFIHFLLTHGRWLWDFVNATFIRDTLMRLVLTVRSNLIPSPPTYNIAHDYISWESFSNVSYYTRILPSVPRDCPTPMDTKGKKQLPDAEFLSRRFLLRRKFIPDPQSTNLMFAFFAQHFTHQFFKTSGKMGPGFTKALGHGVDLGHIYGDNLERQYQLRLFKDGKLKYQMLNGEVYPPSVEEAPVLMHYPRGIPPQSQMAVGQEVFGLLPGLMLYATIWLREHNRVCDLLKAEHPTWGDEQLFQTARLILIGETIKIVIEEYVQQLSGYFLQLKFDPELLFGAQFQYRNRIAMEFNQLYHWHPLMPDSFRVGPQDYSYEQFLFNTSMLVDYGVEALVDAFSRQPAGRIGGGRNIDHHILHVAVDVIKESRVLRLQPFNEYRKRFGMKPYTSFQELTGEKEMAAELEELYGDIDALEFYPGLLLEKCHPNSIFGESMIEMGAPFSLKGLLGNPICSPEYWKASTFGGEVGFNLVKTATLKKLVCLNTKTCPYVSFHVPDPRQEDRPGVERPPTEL
Excerpt: Colorimetric enzyme immunoassay (EIA) kits were done to screen for the isozyme-specific inhibition.

[3] = tested on: TNF-α in RAW264.7 macrophage cells; assay: In vitro measurement of TNF-α in RAW264.7 macrophage cells (RT-qPCR); assay type: cell-based
Excerpt: Both Lipopolysaccharides (LPS) and hispidin were purchased from Sigma (Sigma-Aldrich, St. Louis, MO, USA)[40]. The foetal bovine serum (FBS) and Dulbecco’s modified Eagle’s medium (DMEM) were purchased from Hyclone (General Electric Healthcare Life Sciences, Mississauga, Canada), penicillin streptomycin (P/S) was purchased from Solarbio (Solarbio life sciences, Beijing, P. R. China). Results of all in vitro anti-inflammatory screening were obtained from the confirmatory diagnostic unit, VACSERA, Egypt.
DMEM was used to cultivate the macrophage cells RAW264.7 (Shanghai BOGO Industrial Co., Ltd., Shanghai, China), and supplemented with 10% FBS and 1% P/S (100 U/ml and […], respectively). […] They were treated with various concentrations of hispidin, then with 1 μg/ml LPS for the indicated time.
PBS (1 ml/well) was used to wash the cells in 24-well plates. […] For the experiments, CL Buffer included MgCl2 (M1028; Sigma) or RNasin Plus RNase Inhibitor (N2615; Promega). Before use, both Bio-Rad SPR and CL buffer were equilibrated to room temperature. […] Carefully, the resulting lysates were collected and either analysed immediately or stored frozen ([…]).
RT-qPCR analysis was performed in one-step SYBR Green RT-qPCR. […] A CFX96 real-time PCR instrument (Bio-Rad) was used under the following protocol: 50uC for 10 min, 95uC for 5 min, 95uC for 10 s/61uC for 15 s/72uC for 30 s.
Total RNA purified from cells was used as an RT-qPCR quantification standard.

[4] = Dissolution of DPPH samples in DMSO/methanol; assay type: physicochemical; details: DPPH sample preparation, methanol: DMSO 9:1 v/v
Experimental: as §3

stomach = assay: Histopathological examination of stomach; assay type: in vivo, rats; details: rat, in vivo
Experimental: In brief, the stomachs of each animal group’s rat were fixed in 10% neutral buffered formalin for 48 h. The sections were then dehydrated, cleared, fixed in paraffin, sectioned ([…]), and stained with H&E stain.

SMILES	DPPH test results (µM trolox equivalent/ 1mg sample ± SD) (DPPH free radical assay)	DPPH anti-oxidant activity (DPPH free radical assay)	SI (COX-2)	IC50 (5-LOX enzyme)	5-LOX %inh (5-LOX enzyme; conc 0.1 (μM))	5-LOX %inh (5-LOX enzyme; conc 1 (μM))	5-LOX %inh (5-LOX enzyme; conc 10 (μM))	5-LOX %inh (5-LOX enzyme; conc 100 (μM))	melting point	IC50 (ovine COX-1; IC50 COX-1)	COX1 %inh (ovine COX-1; conc 0.1 (μM))	COX1 %inh (ovine COX-1; conc 1 (μM))	COX1 %inh (ovine COX-1; conc 10 (μM))	COX1 %inh (ovine COX-1; conc 100 (μM))	TNF-α fold change [3]	S.I (IC50 COX-1/IC50 COX-2) (COX-2)	also measured
CCNC(=S)N/N=C/c1cn(S(C)(=O)=O)c2ccccc12 [Compound 4b, (E)-N-Ethyl-2{[1-(methylsulfonyl)-1H-indol-3yl]methylene}-hydrazinecarbothioamide]	426.65 ± 28.02 µM trolox equivalent/ 1mg sample	426.65 µM Trolox equivalent/mg	0.236	29.2 ± 1.54 µM	4.17%	11.6%	30.5%	70.1%	240 to 242 °C	28.5 ± 0.8 µM	3.74%	8.96%	27.4%	73.3%			antibacterial activity against E. coli [1]: selective antibacterial activity; antibacterial activity against Salmonella enterica [2]: selective antibacterial activity
CS(=O)(=O)n1cc(/C=N/NC(=O)Nc2ccccc2)c2ccccc21 [Compound 3b, (E)-2{[1-(methylsulfonyl)-1H-indol-3yl]methylene}-N-phenylhydrazinecarboxamide]	14.38 ± 0.85 µM trolox equivalent/ 1mg sample		1.455	14.8 ± 0.78 µM	5.27%	16.1%	36.1%	78.4%	234 to 236 °C	32 ± 0.91 µM	3.48%	11.6%	30.5%	68.5%	0.71	1.46	
Cc1ccc(NC(=S)N/N=C/c2cn(S(C)(=O)=O)c3ccccc23)cc1 [Compound 4d, (E)-2{[1-(methylsulfonyl)-1H-indol-3yl]methylene}-N-(p-tolyl)hydrazinecarbothioamide]	389.82 ± 19.25 µM trolox equivalent/ 1mg sample	389.82 µM Trolox equivalent/mg	2.375	17.9 ± 0.95 µM	4.88%	12.5%	33.7%	77.2%	237 to 239 °C	17.1 ± 0.49 µM	7.22%	13.4%	36.4%	75.8%	0.19	2.38	
CCN1CC(=O)S/C1=N\N=C\c1cn(S(C)(=O)=O)c2ccccc12 [Compound 5b]			0.249	47.8 ± 2.53 µM	1.82%	3.84%	15.1%	73.1%	230 to 232 °C		7.23%	15.2%	31.1%	73.6%	0.18	0.25	solubility of sample in DMSO and methanol [4]: didn’t dissolve in DMSO nor in methanol; IC50 (ovine COX-1; read-out: IC50 COX-1): 22.2 ± 0.63 µM
COc1ccc2c(c1)c(CC(=O)O)c(C)n2C(=O)c1ccc(Cl)cc1 [Indomethacin, reference compound]																	stomach histopathology finding (stomach): multiple complete and perforating ulcers and superficial erosions
